Molecules are shown by their SMILES. Read-outs that look alike come from different tables or passages of the source.

The target in assay [1] is T1, xanthine oxidase (Bos taurus, UniProt P80457).
T1 construct: gene XDH
Description: XO activity assay (uric acid absorbance at […] nm) with Lineweaver-Burk kinetics (Ki […]); also retained by XO in ultrafiltration UPLC-MS. In kind it is biochemical.

The target in assay [2] is T1, xanthine oxidase. The description is as above. In kind it is biochemical. The source holds these as a separate data set.

T1 sequence (P80457 2-1332): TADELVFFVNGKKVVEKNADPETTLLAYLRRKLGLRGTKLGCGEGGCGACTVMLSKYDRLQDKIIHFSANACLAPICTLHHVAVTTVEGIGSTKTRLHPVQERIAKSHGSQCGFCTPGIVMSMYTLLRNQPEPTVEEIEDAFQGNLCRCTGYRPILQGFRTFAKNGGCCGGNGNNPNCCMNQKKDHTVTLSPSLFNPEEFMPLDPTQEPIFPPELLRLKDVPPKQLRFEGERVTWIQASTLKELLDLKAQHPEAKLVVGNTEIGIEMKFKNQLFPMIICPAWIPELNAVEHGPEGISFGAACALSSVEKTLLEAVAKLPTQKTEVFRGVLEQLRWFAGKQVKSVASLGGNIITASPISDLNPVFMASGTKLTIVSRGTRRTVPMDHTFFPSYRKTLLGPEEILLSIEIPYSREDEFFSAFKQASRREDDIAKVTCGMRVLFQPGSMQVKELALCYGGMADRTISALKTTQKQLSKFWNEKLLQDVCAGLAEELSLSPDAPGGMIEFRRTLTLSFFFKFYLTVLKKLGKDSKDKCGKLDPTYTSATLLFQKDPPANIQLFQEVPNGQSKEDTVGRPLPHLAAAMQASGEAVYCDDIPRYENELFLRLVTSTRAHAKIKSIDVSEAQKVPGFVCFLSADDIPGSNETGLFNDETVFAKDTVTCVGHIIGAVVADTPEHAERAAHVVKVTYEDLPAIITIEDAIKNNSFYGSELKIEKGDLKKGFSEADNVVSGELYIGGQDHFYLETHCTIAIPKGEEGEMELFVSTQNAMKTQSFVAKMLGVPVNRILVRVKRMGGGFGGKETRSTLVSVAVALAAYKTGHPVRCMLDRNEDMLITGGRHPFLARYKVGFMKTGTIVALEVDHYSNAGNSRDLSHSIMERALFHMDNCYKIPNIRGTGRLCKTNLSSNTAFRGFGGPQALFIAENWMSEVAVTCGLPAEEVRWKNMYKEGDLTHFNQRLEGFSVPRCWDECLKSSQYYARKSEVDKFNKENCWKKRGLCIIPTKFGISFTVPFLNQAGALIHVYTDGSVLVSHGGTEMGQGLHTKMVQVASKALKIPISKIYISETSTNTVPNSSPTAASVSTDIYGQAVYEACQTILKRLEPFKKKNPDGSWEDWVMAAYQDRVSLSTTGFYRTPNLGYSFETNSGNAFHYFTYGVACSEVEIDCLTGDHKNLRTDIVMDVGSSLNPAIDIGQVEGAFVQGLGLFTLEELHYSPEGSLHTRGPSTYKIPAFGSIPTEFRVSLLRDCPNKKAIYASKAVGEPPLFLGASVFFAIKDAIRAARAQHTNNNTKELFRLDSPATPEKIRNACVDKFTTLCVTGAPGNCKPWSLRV

The IC50 is the point on the concentration scale where inhibition reaches its midpoint. Higher therefore signals lower potency. For the molecule `O=c1cc(-c2ccc(O[C@@H]3O[C@H](CO)[C@@H](O)[C@H](O)[C@H]3O)c(O)c2)oc2cc(O)cc(O)c12` [luteolin-4′-O-glucoside], on xanthine oxidase [1], the IC50 is 580 nM.
The molecule `O=c1cc(-c2ccc(O)c(O)c2)oc2cc(O)cc(O)c12` [luteolin] showed an IC50 against xanthine oxidase [2] of 1500 nM.

For the origin of these results see article PMC6273769, “Screening of Potential Xanthine Oxidase Inhibitors in Gnaphalium hypoleucum DC. by Immobilized Metal Affinity Chromatography and Ultrafiltration-Ultra Performance Liquid Chromatography-Mass Spectrometry” (Molecules, 2016).
